Measured values as given in patent US6479435B1, “Diaryl ethers and processes for their preparation and herbicidal and desiccant compositions containing them” (ISK Americas Incorporated, priority 1997, dated 2002).

How the values were obtained:
Format in all cases: in vivo
[1] = test system: Johnsongrass (Sorghum halepense, SORHA); assay: Pre-emerge greenhouse herbicide test, phytotoxicity rating; conditions: 14 days after application, rating scale 0-100
Procedure, shortened: (§1)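 Visual 0–100 injury rating (100 = all plants dead) taken 14 days after treatment. Rates of 125–1000 g ai/ha in acetone, 187 l/ha, were sprayed onto soil one day post-sowing; pots were surface-watered to incorporate, then bottom-watered.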

[2] = test system: barnyardgrass (Echinochloa crusgalli, ECHCG); assay: as above; conditions: 14 days after application, rating scale 0-100
Procedure, shortened: as §1

[3] = test system: common ragweed (Ambrosia artemisiifolia L., AMBEL); assay: as above; conditions: 14 days after application, rating scale 0-100
Procedure, shortened: as §1

[4] = test system: green foxtail (Setaria viridis, SETVI); assay: as above; conditions: 14 days after application, rating scale 0-100
Procedure, shortened: as §1

[5] = test system: ivyleaf morningglory (Ipomoea hederacea, IPOHE); assay: as above; conditions: 14 days after application, rating scale 0-100
Procedure, shortened: as §1

[6] = test system: lambsquarters (Chenopodium album, CHEAL); assay: as above; conditions: 14 days after application, rating scale 0-100
Procedure, shortened: as §1

[7] = test system: large crabgrass (Digitaria sanguinalis, DIGSA); assay: as above; conditions: 14 days after application, rating scale 0-100
Procedure, shortened: as §1

[8] = test system: redroot pigweed (Amaranthus retroflexus, AMARE); assay: as above; conditions: 14 days after application, rating scale 0-100
Procedure, shortened: as §1

[9] = test system: sicklepod (Cassia obtusifolia, CASOB); assay: as above; conditions: 14 days after application, rating scale 0-100
Procedure, shortened: as §1

[10] = test system: velvetleaf (Abutilon theophrasti, ABUTH); assay: as above; conditions: 14 days after application, rating scale 0-100
Procedure, shortened: as §1

[11] = test system: field corn (Zea mays L., var. Dekalb 535, CORN); assay: Pre-emerge greenhouse test, crop damage rating; conditions: 14 days after application, rating scale 0-100
Procedure, shortened: as §1

[12] = test system: upland rice (Oryza sp., var.Tebonnet, RICE); assay: Pre-emerge greenhouse test, crop damage rating; conditions: 14 days after application, rating scale 0-100
Procedure, shortened: as §1

[13] = test system: soybean (Glycine max L., var. Pella 86, SOY); assay: Pre-emerge greenhouse test, crop damage rating; parameters: key to SOY crop damage rating: 0 = no damage, 100 = complete death of all plants; conditions: 14 days after application, rating scale 0-100
Procedure, shortened: as §1

[14] = test system: common ragweed (Ambrosia artemisiifolia L., AMBEL); assay: Post-emerge greenhouse herbicide test, phytotoxicity rating; conditions: 14 days after application; for phytotoxicity rating AMBEL: scale 0-100
Procedure, shortened: (§2)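 Scores use a 0 (no damage) to 100 (complete kill) scale, taken 14 days after a foliar spray. Acetone solutions with 0.25% v/v non-ionic surfactant were applied by track sprayer at 187 l/ha and 63-1000 g ai/ha to bottom-watered 2-3 leaf plants.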

[15] = test system: Johnsongrass (Sorghum halepense, SORHA); assay: as above; conditions: 14 days after application; for phytotoxicity rating SORHA: scale 0-100
Procedure, shortened: as §2

[16] = test system: barnyardgrass (Echinochloa crusgalli, ECHCG); assay: as above; conditions: 14 days after application; for phytotoxicity rating ECHCG: scale 0-100
Procedure, shortened: as §2

[17] = test system: green foxtail (Setaria viridis, SETVI); assay: as above; conditions: 14 days after application; for phytotoxicity rating SETVI: scale 0-100
Procedure, shortened: as §2

[18] = test system: ivyleaf morningglory (Ipomoea hederacea, IPOHE); assay: as above; conditions: 14 days after application; for phytotoxicity rating IPOHE: scale 0-100
Procedure, shortened: as §2

[19] = test system: lambsquarters (Chenopodium album, CHEAL); assay: as above; conditions: 14 days after application; for phytotoxicity rating CHEAL: scale 0-100
Procedure, shortened: as §2

[20] = test system: large crabgrass (Digitaria sanguinalis, DIGSA); assay: as above; conditions: 14 days after application; for phytotoxicity rating DIGSA: scale 0-100
Procedure, shortened: as §2

[21] = test system: redroot pigweed (Amaranthus retroflexus, AMARE); assay: as above; conditions: 14 days after application; for phytotoxicity rating AMARE: scale 0-100
Procedure, shortened: as §2

[22] = test system: velvetleaf (Abutilon theophrasti, ABUTH); assay: as above; conditions: 14 days after application; for phytotoxicity rating ABUTH: scale 0-100
Procedure, shortened: as §2

[23] = test system: field corn (Zea mays L., var. Dekalb 535, CORN); assay: Post-emerge greenhouse test, crop damage rating; conditions: 14 days after application; for crop damage rating CORN: scale 0-100
Procedure, shortened: as §2

[24] = test system: upland rice (Oryza sp., var.Tebonnet, RICE); assay: Post-emerge greenhouse test, crop damage rating; conditions: 14 days after application; for crop damage rating RICE: scale 0-100
Procedure, shortened: as §2

[25] = test system: soybean (Glycine max L., var. Pella 86, SOY); assay: Post-emerge greenhouse test, crop damage rating; parameters: key to crop damage rating SOY: 0-100 scale: 0 = no damage, 100 = complete death of all plants; conditions: 14 days after application; for crop damage rating SOY: scale 0-100
Procedure, shortened: as §2

CS(=O)(=O)c1cccnc1Oc1cc(-n2c(=O)n3n(c2=S)CCCC3)c(F)cc1Cl [Compound 8-21]
SORHA phytotoxicity rating ([1]; Rate 125 g al/ha): 50
SORHA phytotoxicity rating ([1]; Rate 500 g al/ha): 100
ECHCG phytotoxicity rating ([2]; Rate 125 g al/ha): 40
ECHCG phytotoxicity rating ([2]; Rate 500 g al/ha): 90
AMBEL phytotoxicity rating ([3]; Rate 125 g al/ha): 70
AMBEL phytotoxicity rating ([3]; Rate 500 g al/ha): 90
SETVI phytotoxicity rating ([4]; Rate 125 g al/ha): 99
SETVI phytotoxicity rating ([4]; Rate 500 g al/ha): 100
IPOHE phytotoxicity rating ([5]; Rate 125 g al/ha): 90
IPOHE phytotoxicity rating ([5]; Rate 500 g al/ha): 100
CHEAL phytotoxicity rating ([6]; Rate 125 g al/ha): 100
CHEAL phytotoxicity rating ([6]; Rate 500 g al/ha): 100
DIGSA phytotoxicity rating ([7]; Rate 125 g al/ha): 70
DIGSA phytotoxicity rating ([7]; Rate 500 g al/ha): 100
AMARE phytotoxicity rating ([8]; Rate 125 g al/ha): 100
AMARE phytotoxicity rating ([8]; Rate 500 g al/ha): 100
CASOB phytotoxicity rating ([9]; Rate 125 g al/ha): 70
CASOB phytotoxicity rating ([9]; Rate 500 g al/ha): 100
ABUTH phytotoxicity rating ([10]; Rate 125 g al/ha): 100
ABUTH phytotoxicity rating ([10]; Rate 500 g al/ha): 100
CORN crop damage rating ([11]; Rate 125 g al/ha): 0
CORN crop damage rating ([11]; Rate 500 g al/ha): 10
RICE crop damage rating ([12]; Rate 125 g al/ha): 40
RICE crop damage rating ([12]; Rate 500 g al/ha): 95
SOY crop damage rating ([13]; Rate 125 g al/ha): 0
SOY crop damage rating ([13]; Rate 500 g al/ha): 80
phytotoxicity rating AMBEL ([14]; rate 63 g ai/ha): 60
phytotoxicity rating AMBEL ([14]; rate 500 g ai/ha): 90
phytotoxicity rating SORHA ([15]; rate 63 g ai/ha): 10
phytotoxicity rating SORHA ([15]; rate 500 g ai/ha): 70
phytotoxicity rating ECHCG ([16]; rate 63 g ai/ha): 0
phytotoxicity rating ECHCG ([16]; rate 500 g ai/ha): 70
phytotoxicity rating SETVI ([17]; rate 63 g ai/ha): 0
phytotoxicity rating SETVI ([17]; rate 500 g ai/ha): 40
phytotoxicity rating IPOHE ([18]; rate 63 g ai/ha): 90
phytotoxicity rating IPOHE ([18]; rate 500 g ai/ha): 100
phytotoxicity rating CHEAL ([19]; rate 63 g ai/ha): 99
phytotoxicity rating CHEAL ([19]; rate 500 g ai/ha): 100
phytotoxicity rating DIGSA ([20]; rate 63 g ai/ha): 0
phytotoxicity rating DIGSA ([20]; rate 500 g ai/ha): 60
phytotoxicity rating AMARE ([21]; rate 63 g ai/ha): 100
phytotoxicity rating AMARE ([21]; rate 500 g ai/ha): 100
phytotoxicity rating ABUTH ([22]; rate 63 g ai/ha): 100
phytotoxicity rating ABUTH ([22]; rate 500 g ai/ha): 100
crop damage rating CORN ([23]; rate 63 g ai/ha): 10
crop damage rating CORN ([23]; rate 500 g ai/ha): 0
crop damage rating RICE ([24]; rate 63 g ai/ha): 50
crop damage rating RICE ([24]; rate 500 g ai/ha): 60
crop damage rating SOY ([25]; rate 63 g ai/ha): 90
crop damage rating SOY ([25]; rate 500 g ai/ha): 100

Cn1nc(-c2cc(Oc3ncccc3C#N)c(Cl)cc2F)c(Cl)c1C(F)(F)F [Compound 1-3]
phytotoxicity rating SORHA ([1]; 125 g ai/ha): 0
phytotoxicity rating SORHA ([1]; 500 g ai/ha): 40
phytotoxicity rating ECHCG ([2]; 125 g ai/ha): 0
phytotoxicity rating ECHCG ([2]; 500 g ai/ha): 100
phytotoxicity rating AMBEL ([3]; 125 g ai/ha): 50
phytotoxicity rating AMBEL ([3]; 500 g ai/ha): 50
phytotoxicity rating SETVI ([4]; 125 g ai/ha): 95
phytotoxicity rating IPOHE ([5]; 125 g ai/ha): 0
phytotoxicity rating IPOHE ([5]; 500 g ai/ha): 30
phytotoxicity rating CHEAL ([6]; 125 g ai/ha): 90
phytotoxicity rating CHEAL ([6]; 500 g ai/ha): 100
phytotoxicity rating DIGSA ([7]; 125 g ai/ha): 20
phytotoxicity rating DIGSA ([7]; 500 g ai/ha): 0
phytotoxicity rating AMARE ([8]; 125 g ai/ha): 100
phytotoxicity rating AMARE ([8]; 500 g ai/ha): 100
phytotoxicity rating CASOB ([9]; 125 g ai/ha): 0
phytotoxicity rating CASOB ([9]; 500 g ai/ha): 80
phytotoxicity rating ABUTH ([10]; 125 g ai/ha): 20
phytotoxicity rating ABUTH ([10]; 500 g ai/ha): 0
crop damage rating CORN ([11]; 125 g ai/ha): 0
crop damage rating CORN ([11]; 500 g ai/ha): 40
crop damage rating RICE ([12]; 125 g ai/ha): 0
crop damage rating RICE ([12]; 500 g ai/ha): 30
crop damage rating SOY ([13]; 125 g ai/ha): 0
crop damage rating SOY ([13]; 500 g ai/ha): 95
AMBEL phytotoxicity rating (0-100) ([14]; 63 g al/ha): 0
AMBEL phytotoxicity rating (0-100) ([14]; 500 g al/ha): 80
SORHA phytotoxicity rating (0-100) ([15]; 63 g al/ha): 20
SORHA phytotoxicity rating (0-100) ([15]; 500 g al/ha): 80
ECHCG phytotoxicity rating (0-100) ([16]; 63 g al/ha): 0
ECHCG phytotoxicity rating (0-100) ([16]; 500 g al/ha): 70
SETVI phytotoxicity rating (0-100) ([17]; 63 g al/ha): 0
SETVI phytotoxicity rating (0-100) ([17]; 500 g al/ha): 90
IPOHE phytotoxicity rating (0-100) ([18]; 63 g al/ha): 90
IPOHE phytotoxicity rating (0-100) ([18]; 500 g al/ha): 10
CHEAL phytotoxicity rating (0-100) ([19]; 63 g al/ha): 95
CHEAL phytotoxicity rating (0-100) ([19]; 500 g al/ha): 100
DIGSA phytotoxicity rating (0-100) ([20]; 63 g al/ha): 0
DIGSA phytotoxicity rating (0-100) ([20]; 500 g al/ha): 80
AMARE phytotoxicity rating (0-100) ([21]; 63 g al/ha): 100
AMARE phytotoxicity rating (0-100) ([21]; 500 g al/ha): 100
ABUTH phytotoxicity rating (0-100) ([22]; 63 g al/ha): 70
ABUTH phytotoxicity rating (0-100) ([22]; 500 g al/ha): 100
CORN crop damage rating (0-100) ([23]; 63 g al/ha): 0
CORN crop damage rating (0-100) ([23]; 500 g al/ha): 10
RICE crop damage rating (0-100) ([24]; 63 g al/ha): 20
RICE crop damage rating (0-100) ([24]; 500 g al/ha): 70
SOY crop damage rating (0-100) ([25]; 63 g al/ha): 30
SOY crop damage rating (0-100) ([25]; 500 g al/ha): 90
